Measured values: US11229655B2, “Fulvestrant formulations” (Fresenius Kabi USA, LLC, priority 2014, dated 2022)
Values after ≈ are worked out from the molar mass of the structure shown. Read-outs that look alike come from different tables or passages of the source.

Legend:
[1] = U.S. Pat. No. 6,774,122, cited from earlier work
[2] = Fulvestrant solubility in castor oil based liquid formulations, HPLC assay; type: physicochemical; settings: castor oil q.s., 10% w/v ethanol, 10% w/v benzyl alcohol
Description: To determine the effect of other compounds on the solubility of fulvestrant in a castor oil vehicle containing 10% ethanol and 10% benzyl alcohol, several liquid formulations were prepared by mixing using standard techniques, as summarized in Table 1. Fulvestrant solubility in each formulation was determined by an HPLC assay.

[3] = cited from earlier work

- solubility ([2]; castor oil based liquid formulation, oil or lipid, 0.05% w/v polysorbate 80, read-out: Solubility): 76.5 mg/mL (≈ 126 mM)
- solubility ([2]; castor oil based liquid formulation, oil or lipid, 0.1% w/v polysorbate 80, read-out: Solubility): 82.5 mg/mL (≈ 136 mM)
- solubility ([2]; castor oil based liquid formulation, oil or lipid, 0.16% w/v polysorbate 80, read-out: Solubility): 90 mg/mL (≈ 148 mM)
- solubility ([2]; castor oil based liquid formulation, oil or lipid, 0.2% w/v polysorbate 80, read-out: Solubility): 95 mg/mL (≈ 157 mM)
- solubility ([2]; castor oil based liquid formulation, oil or lipid, 15% w/v ethyl oleate, read-out: Solubility): 66.8 mg/mL (≈ 110 mM)
- solubility ([2]; castor oil based liquid formulation, oil or lipid, 15% w/v isopropyl myristate, read-out: Solubility): 63.9 mg/mL (≈ 105 mM)
- solubility ([2]; castor oil based liquid formulation, oil or lipid, 15% w/v isopropyl palmitate, read-out: Solubility): 67.6 mg/mL (≈ 111 mM)
- solubility ([2]; 0.09% w/v polysorbate 80): 82.1 mg/mL (≈ 135 mM)
Compound: C[C@]12CC[C@@H]3c4ccc(O)cc4C[C@@H](CCCCCCCCC[S+]([O-])CCCC(F)(F)C(F)(F)F)[C@H]3[C@@H]1CC[C@@H]2O (stereo partly drawn) [Fulvestrant, 7α-[9-(4,4,5,5,5-pentafluoropentylsulfinyl)nonyl]oestra-1,3,5(10)-triene 3,17 β-diol]
- solubility of fulvestrant in a castor oil vehicle ([1]; castor oil vehicle containing 10% ethanol, 10% benzyl alcohol, 15% benzyl benzoate): 65 mg/mL
- solubility of fulvestrant in castor oil ([1]; castor oil): 20 mg/mL
- solubility in water [3]: practically insoluble in water
